{
  "source": "ChEMBL document CHEMBL5532675",
  "about": "“Discovery of 4-Ethoxy-6-chloro-5-azaindazoles as Novel PDE4 Inhibitors for the Treatment of Alcohol Use Disorder and Alcoholic Liver Diseases” (J Med Chem, 2024)",
  "type_in_all_cases": "ADME, organism-based",
  "key": {"[1]": {"experiment": "AUC (0 to t) in Sprague-Dawley rat at 2 mg/kg, iv measured after 24 hrs by LC-MS analysis", "settings": "in vivo"}, "[2]": {"experiment": "Drug concentration in Sprague-Dawley rat liver at 10 mg/kg, po administered as single dose for 2 hrs by LC-MS analysis", "settings": "read-out: Ct"}, "[3]": {"experiment": "Half-life in Sprague-Dawley rat at 10 mg/kg, po measured after 24 hrs by LC-MS analysis", "settings": "in vivo"}},
  "data": [
    {"smiles": "CCOc1nc(Cl)cc2c1cnn2CCCC(=O)O", "values": [
      {"measurement": "AUC(0-t) at 24 h", "setting": "[1]", "result": 142, "unit": "µg·h/mL"},
      {"measurement": "concentration at 2 h", "setting": "[2]", "result": 8120, "unit": "ng/g"},
      {"measurement": "half-life", "setting": "[3]", "result": 9.3, "unit": "h"}
    ]}
  ]
}
